The text below walks through data of patent US20230042612A1, “METHODS OF CONTROLLING OR PREVENTING INFESTATION OF PLANTS BY A PHYTOPATHOGENIC MICROORGANISM OF THE GENUS MACROPHOMINA SPP” (SYNGENTA CROP PROTECTION AG, priority 2019, published 2023).

In this test the test system is Macrophomina phaseolina. Description: Strawberry pot trial in the greenhouse, soil drench at planting, efficacy against Macrophomina phaseolina. The format is in vivo. Conditions: 250 g AI/ha drench at planting, strawberry 'Sweet Ann'; for Pest severity (IS 0-5; 0 = no damage, 5 = severe damage): 6 replications. The procedure:
A strawberry pot trial was carried out in the greenhouse Vero Beach, United States to evaluate the efficacy of different compounds against Macrophomina phaseolina.
The plants were planted in 4 L pots with Vero Beach Mix (50% potting media and 50% pasteurized sand). The plants were bare root strawberry of the variety ‘Sweet Ann’. The strawberry plants were partially planted, then were inoculated with 2 grams of the infested millet. The inoculum was grown on twice sterilized millet for 1-2 weeks. The isolate used was originally isolated from strawberry. After the inoculation the roots were completely covered. At the day of planting each plant was drench applied with 100 mL of compound solution. The application dose was calculated based on a plant spacing of 30.5 cm by 45.7 cm. The plants were grown in a greenhouse that averaged 32° C. in the day and 21° C. at night. Plants were watered daily. The disease severity was evaluated after 44 and 65 days after application using a […] index scale (5=severe damage, 0=no damage).

[1] abbreviates: 65 days after application (second assessment).

`O=C(NCCc1ncc(C(F)(F)F)cc1Cl)c1ccccc1C(F)(F)F` [Fluopyram]: where the note is “44 days after planting”, the “% efficacy based on disease incidence” value amounted to 44.33% and the “Pest severity (IS 0-5; 0 = no damage, 5 = severe damage)” value is 1.67,A. Besides, under setting [1], the “% efficacy based on disease incidence” value stood at 1.60% and the “Pest severity (IS 0-5; 0 = no damage, 5 = severe damage)” value is reported as 4.92,A.
